Source: patent US8916702B2 (priority 2012, dated 2014)

Test system: HCV pseudoparticles (genotype 1a HCV E1 and E2 envelope, H77C isolate)
Assay: microbe, parasite or virus in culture
Assay type: cell-based
Details: Hepatitis C virus, Huh-7, 48 h, HCV pseudoparticle infection of Huh7 cells, luciferase 2 days after infection; average of duplicates

| SMILES | EC50 |
| --- | --- |
| O=C(NCC[C@H](NC(=O)c1ccc(Nc2nc(NC3(c4ccc(Cl)cc4)CC3)nc(OCC(F)(F)F)n2)cc1)C(=O)O)C(=O)NC1CCCC(O)C1 (stereo partly drawn) [Compound 1112] | 1.23 nM |

Same assay, conditions: Hepatitis C virus, Huh-7, 48 h, HCV pseudoparticles (genotype 1a, H77C) in Huh7 cells; average of duplicate; luciferase 2 days after infection

| SMILES | EC50 |
| --- | --- |
| CC(C)(CNC(=O)C(N)=O)CNC(=O)c1ccc(Nc2nc(NC3(c4ccc(Cl)cc4)CC3)nc(OCC(F)(F)F)n2)cc1Cl [Compound 3477] | 0.12 nM |
| O=C(Nc1cccc(F)c1)C(=O)N[C@H](CCNC(=O)c1ccc(Nc2nc(NC3(c4ccc(Cl)cc4)CC3)nc(OCC(F)(F)F)n2)cc1)C(=O)O [Compound 3492, (R)-4-(4-((4-((1-(4-chlorophenyl)cyclopropyl)amino)-6-(2,2,2-trifluoroethoxy)-1,3,5-triazin-2-yl)amino)benzamido)-2-(2-((3-fluorophenyl)amino)-2-oxoacetamido)butanoic acid] | 0.33 nM |
| O=C(NCC[C@H](NC(=O)c1ccc(Nc2nc(NC3(c4ccc(Cl)cc4)CC3)nc(OCC(F)(F)F)n2)cc1)C(=O)O)C(=O)Nc1ccc(-n2cnc(Cl)c2Cl)cc1 [Compound 3225] | 17 nM |

Same assay, conditions: Hepatitis C virus, Huh-7, 48 h, read-out: Activity (EC50 class), HCV pseudoparticle infection of Huh7 cells, luciferase 2 days after infection; EC50 expressed as class A/B

| SMILES | EC50 |
| --- | --- |
| CC1CC(NC(=O)C(=O)NC[C@H](NC(=O)c2ccc(Nc3nc(NC4(c5ccc(Cl)cc5)CC4)nc(OCC(F)(F)F)n3)cc2)C(=O)O)CC(C)(C)C1 (stereo partly drawn) [Compound 1088] | 0.01 to 10 nM |
| CC1(C)CC(NC(=O)C(=O)NC[C@H](NC(=O)c2ccc(Nc3nc(NC4(c5ccc(Cl)cc5)CC4)nc(OCC(F)(F)F)n3)cc2)C(=O)O)CC(C)(C)C1 [Compound 1077] | 0.01 to 10 nM |
| CC1CCCCC1NC(=O)C(=O)NC[C@H](NC(=O)c1ccc(Nc2nc(NC3(c4ccc(Cl)cc4)CC3)nc(OCC(F)(F)F)n2)cc1)C(=O)O (stereo partly drawn) [Compound 1089] | 0.01 to 10 nM |
| COC(=O)[C@H](CCNC(=O)C(=O)NC1CCC(F)(F)CC1)NC(=O)c1ccc(Nc2nc(NC3(c4ccc(Cl)cc4)CC3)nc(OCC(F)(F)F)n2)cc1 [Compound 1099] | 0.01 to 10 nM |
| O=C(NCCc1ccccc1F)C(=O)NC[C@H](NC(=O)c1ccc(Nc2nc(NC3(c4ccc(Cl)cc4)CC3)nc(OCC(F)(F)F)n2)cc1)C(=O)O [Compound 1402] | 0.01 to 10 nM |
| CC(CNC(=O)C(=O)NCC[C@H](NC(=O)c1ccc(Nc2nc(NC3(c4ccc(Cl)cc4)CC3)nc(OCC(F)(F)F)n2)cc1)C(=O)O)c1ccccc1 (stereo partly drawn) [Compound 1327] | 0.01 to 10 nM |
| COC(=O)[C@H](CNC(=O)C(=O)Nc1cccc(C(F)(F)F)c1)NC(=O)c1ccc(Nc2nc(NC3(c4ccc(Cl)cc4)CC3)nc(OCC(F)(F)F)n2)cc1 [Compound 1251] | 0.01 to 10 nM |
| C[C@@H](NC(=O)C(=O)NC[C@H](NC(=O)c1ccc(Nc2nc(NC3(c4ccc(Cl)cc4)CC3)nc(OCC(F)(F)F)n2)cc1)C(=O)O)C1CCCCC1 [Compound 1476] | 0.01 to 10 nM |
| O=C(NCC[C@H](NC(=O)c1ccc(Nc2nc(NC3(c4ccc(Cl)cc4)CC3)nc(OCC(F)(F)F)n2)cc1)C(=O)O)C(=O)Nc1ccncc1 [Compound 1278] | 0.01 to 10 nM |
| CNC(=O)C(=O)NCC(C)(C)CNC(=O)c1ccc(Nc2nc(NC3(c4ccc(Cl)cc4)CC3)nc(OCC(F)(F)F)n2)cc1 [Compound 1553] | 0.01 to 10 nM |
| CC(C)(C)OC(=O)N1CCCC(CNC(=O)C(=O)NCC[C@H](NC(=O)c2ccc(Nc3nc(NC4(c5ccc(Cl)cc5)CC4)nc(OCC(F)(F)F)n3)cc2)C(=O)O)C1 (stereo partly drawn) [Compound 1204] | 0.01 to 10 nM |
| O=C(NCC[C@H](NC(=O)c1ccc(Nc2nc(NC3(c4ccc(Cl)cc4)CC3)nc(OCC(F)(F)F)n2)cc1)C(=O)O)C(=O)NCC1(Cn2ccnc2)CC1 [Compound 1429] | 0.01 to 10 nM |
| COC(=O)[C@H](CNC(=O)C(=O)NCc1ccc(F)c(F)c1)NC(=O)c1ccc(Nc2nc(NC3(c4ccc(Cl)cc4)CC3)nc(OCC(F)(F)F)n2)cc1 [Compound 1136] | 0.01 to 10 nM |
| O=C(NCC[C@H](NC(=O)c1ccc(Nc2nc(NC3(c4ccc(Cl)cc4)CC3)nc(OCC(F)(F)F)n2)cc1)C(=O)O)C(=O)NC1CCCC(O)C1 (stereo partly drawn) [Compound 1112] | 0.01 to 10 nM |

Same assay, conditions: Hepatitis C virus, Huh-7, 48 h, read-out: Activity (EC50 class), HCV pseudoparticles, Huh7 cells, luciferase 2 days after infection; average of duplicates

| SMILES | EC50 |
| --- | --- |
| O=C(NCC[C@H](NC(=O)c1ccc(Nc2nc(NC3(c4ccc(Cl)cc4)CC3)nc(OCC(F)(F)F)n2)cc1)C(=O)O)C(=O)Nc1cccc(C(=O)Nc2ccccc2)c1 [Compound 3617] | 0.01 to 10 nM |
| COC(=O)[C@H](CNC(=O)C(=O)Nc1cccc(Cl)c1)NC(=O)c1ccc(Nc2nc(NC3(c4ccc(Cl)cc4)CC3)nc(OCC(F)(F)F)n2)cc1 [Compound 3685] | 0.01 to 10 nM |
| COC(=O)[C@H](CNC(=O)C(=O)Nc1cccc(C(C)C)c1)NC(=O)c1ccc(Nc2nc(NC3(c4ccc(Cl)cc4)CC3)nc(OCC(F)(F)F)n2)cc1 [Compound 3702] | 0.01 to 10 nM |
| CC(C)(CNC(=O)C(=O)Nc1nc2c(Cl)ccc(Cl)c2s1)CNC(=O)c1ccc(Nc2nc(NC3(c4ccc(Cl)cc4)CC3)nc(OCC(F)(F)F)n2)cc1F [Compound 3681] | 0.01 to 10 nM |
| CCN(CC)CCOc1cccc(NC(=O)C(=O)NC[C@H](NC(=O)c2ccc(Nc3nc(NC4(c5ccc(Cl)cc5)CC4)nc(OCC(F)(F)F)n3)cc2)C(=O)OC)c1 [Compound 3733] | 0.01 to 10 nM |
| O=C(NC[C@H](NC(=O)c1ccc(Nc2nc(NC3(c4ccc(Cl)cc4)CC3)nc(OCC(F)(F)F)n2)cc1)C(=O)O)C(=O)Nc1cccc(-c2ccncc2)c1 [Compound 3768] | 0.01 to 10 nM |
| Cc1nccc(-c2cccc(NC(=O)C(=O)NC[C@H](NC(=O)c3ccc(Nc4nc(NC5(c6ccc(Cl)cc6)CC5)nc(OCC(F)(F)F)n4)cc3)C(=O)O)c2)n1 [Compound 3756] | 0.01 to 10 nM |
| Cc1nc(-c2cccc(NC(=O)C(=O)NCC[C@H](NC(=O)c3ccc(Nc4nc(NC5(c6ccc(Cl)cc6)CC5)nc(OCC(F)(F)F)n4)cc3)C(=O)O)c2)no1 [Compound 3654] | 0.01 to 10 nM |
| CC(C)(CNC(=O)C(=O)Nc1nc2cnccc2s1)CNC(=O)c1ccc(Nc2nc(NC3(c4ccc(Cl)cc4)CC3)nc(OCC(F)(F)F)n2)cc1 [Compound 3808] | 0.01 to 10 nM |
| COC(=O)[C@H](CCNC(=O)C(=O)Nc1cccc(-c2ccc(Cl)cc2)c1)NC(=O)c1ccc(Nc2nc(NC3(c4ccc(Cl)cc4)CC3)nc(OCC(F)(F)F)n2)cc1 [Compound 3599] | 0.01 to 10 nM |
| COC(=O)[C@H](CNC(=O)C(=O)Nc1cccc(C)c1)NC(=O)c1ccc(Nc2nc(NC3(c4ccc(Cl)cc4)CC3)nc(OCC(F)(F)F)n2)cc1 [Compound 3687] | 0.01 to 10 nM |

Same assay, conditions: Hepatitis C virus, Huh-7, read-out: Activity (EC50 class), HCV pseudoparticles (genotype 1a, H77C) in Huh7 cells; EC50 expressed as class A/B

| SMILES | EC50 |
| --- | --- |
| COC(=O)/C(CCNC(=O)C(=O)Nc1cccc(S(C)(=O)=O)c1)=N\C(=O)c1ccc(Nc2nc(NC3(c4ccc(Cl)cc4)CC3)nc(OCC(F)(F)F)n2)cc1 [Compound 3588] | 0.01 to 10 nM |
| O=C(NC/C(=N/C(=O)c1ccc(Nc2nc(NC3(c4ccc(Cl)cc4)CC3)nc(OCC(F)(F)F)n2)cc1)C(=O)O)C(=O)Nc1ccc(Oc2ccccc2)cc1 [Compound 3150] | 0.01 to 10 nM |
| CC(C)(CNC(=O)C(N)=O)CNC(=O)c1ccc(Nc2nc(NC3(c4ccc(Cl)cc4)CC3)nc(OCC(F)(F)F)n2)cc1Cl [Compound 3477] | 0.01 to 10 nM |
| CC(C)(CNC(=O)C(=O)Nc1ccc(Cl)cc1Cl)CNC(=O)c1ccc(Nc2nc(NC3(c4ccc(Cl)cc4)CC3)nc(OCC(F)(F)F)n2)cc1 [Compound 3453] | 0.01 to 10 nM |
| O=C(Nc1cccc(F)c1)C(=O)N[C@H](CCNC(=O)c1ccc(Nc2nc(NC3(c4ccc(Cl)cc4)CC3)nc(OCC(F)(F)F)n2)cc1)C(=O)O [Compound 3492, (R)-4-(4-((4-((1-(4-chlorophenyl)cyclopropyl)amino)-6-(2,2,2-trifluoroethoxy)-1,3,5-triazin-2-yl)amino)benzamido)-2-(2-((3-fluorophenyl)amino)-2-oxoacetamido)butanoic acid] | 0.01 to 10 nM |
| COC(=O)[C@H](CCNC(=O)C(=O)Nc1ccc(Cc2ccccc2)cc1)NC(=O)c1ccc(Nc2nc(NC3(c4ccc(Cl)cc4)CC3)nc(OCC(F)(F)F)n2)cc1 [Compound 3120] | 0.01 to 10 nM |
| O=C(NCC[C@H](NC(=O)c1ccc(Nc2nc(NC3(c4ccc(Cl)cc4)CC3)nc(OCC(F)(F)F)n2)cc1)C(=O)O)C(=O)Nc1ccc(-n2cnc(Cl)c2Cl)cc1 [Compound 3225] | 10 to 1000 nM |
| Cc1cc(NC(=O)C(=O)NCC(O)CNC(=O)c2ccc(Nc3nc(NC4(c5ccc(Cl)cc5)CC4)nc(OCC(F)(F)F)n3)cc2)no1 (stereo not drawn) [Compound 3364] | 0.01 to 10 nM |
| CC(C)(CNC(=O)C(=O)Nc1cccnc1-n1cccn1)CNC(=O)c1ccc(Nc2nc(NC3(c4ccc(Cl)cc4)CC3)nc(OCC(F)(F)F)n2)cc1 [Compound 3256] | 0.01 to 10 nM |
| O=C(NC[C@H](NC(=O)c1ccc(Nc2nc(NC3(c4ccc(Cl)cc4)CC3)nc(OCC(F)(F)F)n2)cc1)C(=O)O)C(=O)Nc1ccc(-c2c[nH]c(N3CCOCC3)n2)cc1 [Compound 3284] | 0.01 to 10 nM |
